Measured values: patent US20250051327A1, “MALT-1 MODULATORS” (EXSCIENTIA AI LIMITED, priority 2020, published 2025)

What was measured:
[1] = test system: IL-2 secretion by human effector memory T cells (TEM); assay: Effector memory T cells IL-2 release assay; type: cell-based; conditions: T-cell; human CD4+ effector memory T cells, CD3/CD28 bead stimulation, 24 h; read-out: CD4TC IL2 IC50
How it was run: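 Human CD4+ effector memory T cells from healthy-donor buffy coats were stimulated with anti-CD3/CD28 Dynabeads and exposed to 10 semi-log compound doses (0.1% DMSO) for 24 h at 37 °C. Supernatant IL-2 was measured by HTRF, and IC50 came from a 4-parameter logistic fit to maximal IL-2. Viability was checked by flow cytometry.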

[2] = biological target: Recombinant human MALT-1 (amino acids 340-824) (Homo sapiens (Human), UniProt Q9UDY8); assay: MALT-1 inhibition assay (fluorogenic substrate Ac-LRSR-Rh110-DP); type: biochemical; conditions: recombinant human MALT-1, substrate Ac-LRSR-Rh110-DP
Chain of Recombinant human MALT-1 (amino acids 340-824) (Q9UDY8 340-824): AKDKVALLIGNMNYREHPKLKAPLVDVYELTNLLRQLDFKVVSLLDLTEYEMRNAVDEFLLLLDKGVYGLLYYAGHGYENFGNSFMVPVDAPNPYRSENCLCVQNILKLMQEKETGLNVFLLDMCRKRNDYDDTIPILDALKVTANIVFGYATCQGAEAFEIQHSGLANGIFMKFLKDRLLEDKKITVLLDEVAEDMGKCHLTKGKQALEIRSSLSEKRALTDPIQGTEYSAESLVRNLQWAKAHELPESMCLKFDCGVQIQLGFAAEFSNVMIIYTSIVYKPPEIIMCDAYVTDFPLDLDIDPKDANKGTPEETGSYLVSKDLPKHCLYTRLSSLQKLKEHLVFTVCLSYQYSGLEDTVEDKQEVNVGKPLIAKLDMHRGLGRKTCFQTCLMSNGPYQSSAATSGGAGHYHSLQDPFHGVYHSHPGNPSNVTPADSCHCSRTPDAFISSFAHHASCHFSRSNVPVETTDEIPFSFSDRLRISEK
How it was run: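 MALT-1 at 3 nM final was reacted with 10 μM Ac-LRSR-Rh110-DP, with substrate addition starting the reaction. Incubation ran 60 minutes at 25° C in the dark. Percent inhibition from fluorescence across doses was fitted to a 4-parameter logistic to give IC50.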

Row | SMILES | IC50 [1] | IC50 [2]
1 | CN(C(=O)[C@H]1CC[S@@](=N)(=O)CC1)[C@@H](c1ccc(N2CCC(C)(C)c3c2cnc2cc(Cl)nn32)cc1)C(F)(F)F (relative stereo) [CPD0072784, (1rel-s,4rel-s)-N-[(1S)-1-(4-{4-chloro-13,13-dimethyl-2,3,7,10-tetraazatricyclo[7.4.0.0^2,6]trideca-1(9),3,5,7-tetraen-10-yl}phenyl)-2,2,2-trifluoroethyl]-1-imino-N-methyl-1-oxo-1λ^6-thiane-4-carboxamide] | 56 nM | 74 nM
2 | CN(C(=O)C1CCCCO1)[C@@H](c1ccc(N2CCCc3c2cnc2cc(Cl)nn32)cc1)C(F)(F)F (stereo partly drawn) [CPD0021569, N-[(1S)-1-(4-{4-chloro-2,3,7,10-tetraazatricyclo[7.4.0.0^2,6]trideca-1(9),3,5,7-tetraen-10-yl}phenyl)-2,2,2-trifluoroethyl]-N-methyloxane-2-carboxamide] | 325 nM | 211 nM
3 | CN(C(=O)[C@H]1C[C@@](C)(O)C1)[C@@H](c1ccc(N2CCCc3c2cnc2cc(Cl)nn32)cc1)C(F)(F)F [CPD0072437, (1r,3s)-N-[(1S)-1-(4-{4-chloro-2,3,7,10-tetraazatricyclo[7.4.0.0^2,6]trideca-1(9),3,5,7-tetraen-10-yl}phenyl)-2,2,2-trifluoroethyl]-3-hydroxy-N,3-dimethylcyclobutane-1-carboxamide] | 178 nM | 123 nM
4 | CN(C(=O)C1CCS(=O)(=O)CC1)[C@@H](c1ccc(N2CCCc3c2cnc2cc(Cl)nn32)cc1)C(C)(F)F [CPD0072803, N-[(1S)-1-(4-{4-chloro-2,3,7,10-tetraazatricyclo[7.4.0.0^2,6]trideca-1(9),3,5,7-tetraen-10-yl}phenyl)-2,2-difluoropropyl]-N-methyl-1,1-dioxo-1λ^6-thiane-4-carboxamide] | 1890 nM | 322 nM
5 | CC(=O)N1CCC[C@H](C(=O)N(C)[C@@H](c2ccc(N3CCCc4c3cnc3cc(Cl)nn43)cc2)C(F)(F)F)C1 (relative stereo) [CPD0073500, (3rel-S)-1-acetyl-N-[(1S)-1-(4-{4-chloro-2,3,7,10-tetraazatricyclo[7.4.0.0^2,6]trideca-1(9),3,5,7-tetraen-10-yl}phenyl)-2,2,2-trifluoroethyl]-N-methylpiperidine-3-carboxamide] | 267 nM | 167 nM
6 | CN(C(=O)C1(C#N)CCS(=O)(=O)CC1)[C@@H](c1ccc(N2CCCc3c2cnc2cc(Cl)nn32)cc1)C(F)(F)F [CPD0073553, N-[(1S)-1-(4-{4-chloro-2,3,7,10-tetraazatricyclo[7.4.0.0^2,6]trideca-1(9),3,5,7-tetraen-10-yl}phenyl)-2,2,2-trifluoroethyl]-4-cyano-N-methyl-1,1-dioxo-1λ^6-thiane-4-carboxamide] | 77 nM | 50 nM
7 | CN1C(=O)OC[C@@H]1C(=O)N(C)[C@@H](c1ccc(N2CCCc3c2cnc2cc(Cl)nn32)cc1)C(F)(F)F (relative stereo) [CPD0073570, (4rel-R)-N-[(1S)-1-(4-{4-chloro-2,3,7,10-tetraazatricyclo[7.4.0.0^2,6]trideca-1(9),3,5,7-tetraen-10-yl}phenyl)-2,2,2-trifluoroethyl]-N,3-dimethyl-2-oxo-1,3-oxazolidine-4-carboxamide] | 216 nM | 62 nM
8 | CN(C(=O)[C@H]1CC[S@@+]([O-])CC1)[C@@H](c1ccc(N2CCC(C)(C)c3c2cnc2cc(Cl)nn32)cc1)C(F)(F)F (relative stereo) [CPD0072776, (1rel-s,4rel-s)-N-[(1S)-1-(4-{4-chloro-13,13-dimethyl-2,3,7,10-tetraazatricyclo[7.4.0.0^2,6]trideca-1(9),3,5,7-tetraen-10-yl}phenyl)-2,2,2-trifluoroethyl]-N-methyl-1-oxo-1λ^4-thiane-4-carboxamide] | 35 nM | 73 nM
9 | COc1ccc2ncc(Nc3ccc([C@H](N(C)C(=O)[C@H]4CC[S@](=N)(=O)CC4)C(F)(F)F)cc3)c([C@H](C)OC)c2n1 (stereo in doubt) [CPD0073130, (1 rel-r,4rel-r)-1-imino-N-methyl-1-oxo-N-[(1S)-2,2,2-trifluoro-1-[4-({6-methoxy-4-[(1 rel-S)-1-methoxyethyl]-1,5-naphthyridin-3-yl}amino)phenyl]ethyl]-1λ^6-thiane-4-carboxamide] | 24 nM | 61 nM
10 | C[C@H]1CCN(c2ccc([C@H](N(C)C(=O)[C@H]3CC[S@](=N)(=O)CC3)C(F)(F)F)cc2)c2cnc3cc(Cl)nn3c21 (relative stereo) [CPD0073195, (1rel-R,4rel-R)-N-[(1S)-1-{4-[(13rel-S)-4-chloro-13-methyl-2,3,7,10-tetraazatricyclo[7.4.0.0^2,6]trideca-1(9),3,5,7-tetraen-10-yl]phenyl}-2,2,2-trifluoroethyl]-1-imino-N-methyl-1-oxo-1λ^6-thiane-4-carboxamide] | 51 nM | 22 nM
11 | C[C@@H]1CCN(c2ccc([C@H](N(C)C(=O)[C@H]3CC[S@](=N)(=O)CC3)C(F)(F)F)cc2)c2cnc3cc(F)nn3c21 (relative stereo) [CPD0074555, (1rel s, 4rel s)1-imino-N-methyl-1-oxo-N-[(1S)-2,2,2-trifluoro-1-[4-[(13 rel R)-4-fluoro-13-methyl-2,3,7,10-tetrazatricyclo[7.4.0.0^2,6]trideca-1(9),3,5,7-tetraen-10-yl]phenyl]ethyl]thiane-4-carboxamide] | 101 nM | 35 nM
12 | CN(C(=O)C1CCS(=O)(=O)CC1)[C@@H](c1ccc(N2CCCc3c2cnc2cc(Cl)nn32)c(F)c1)C(F)(F)F [CPD0021750, N-[(1S)-1-(4-{4-chloro-2,3,7,10-tetraazatricyclo[7.4.0.0^2,6]trideca-1(9),3,5,7-tetraen-10-yl}-3-fluorophenyl)-2,2,2-trifluoroethyl]-N-methyl-1,1-dioxo-1λ^6-thiane-4-carboxamide] | 111 nM | 76 nM
13 | CN(C(=O)[C@H]1CCN(S(C)(=O)=O)C1)[C@@H](c1ccc(N2CCCc3c2cnc2cc(Cl)nn32)cc1)C(F)(F)F (relative stereo) [CPD0073143, (3rel-S)-N-[(1S)-1-(4-{4-chloro-2,3,7,10-tetraazatricyclo[7.4.0.0^2,6]trideca-1(9),3,5,7-tetraen-10-yl}phenyl)-2,2,2-trifluoroethyl]-1-methanesulfonyl-N-methylpyrrolidine-3-carboxamide] | 107 nM | 68 nM
14 | CN1C[C@H](C(=O)N(C)[C@@H](c2ccc(N3CCCc4c3cnc3cc(Cl)nn43)cc2)C(F)(F)F)CCC1=O (relative stereo) [CPD0073197, (3rel-R)-N-[(1S)-1-(4-{4-chloro-2,3,7,10-tetraazatricyclo[7.4.0.0^2,6]trideca-1(9),3,5,7-tetraen-10-yl}phenyl)-2,2,2-trifluoroethyl]-N,1-dimethyl-6-oxopiperidine-3-carboxamide] | 207 nM | 103 nM
15 | CN(C(=O)C1CCS(=O)(=O)C1)[C@@H](c1ccc(N2CCCc3c2cnc2cc(Cl)nn32)cc1)C(F)(F)F (some centres unmarked) [CPD0021573] | 85 nM | 131 nM
16 | CC(=O)N1CCC(C(=O)N(C)[C@@H](c2ccc(N3CCCc4c3cnc3cc(Cl)nn43)cc2)C(F)(F)F)CC1 [CPD0073089, 1-acetyl-N-[(1S)-1-(4-{4-chloro-2,3,7,10-tetraazatricyclo[7.4.0.0^2,6]trideca-1(9),3,5,7-tetraen-10-yl}phenyl)-2,2,2-trifluoroethyl]-N-methylpiperidine-4-carboxamide] | 79 nM | 46 nM
